# Laboratory results published in article PMC10746543, “Design principles for cyclin K molecular glue degraders” (Nature Chemical Biology, 2023).
# Where “and” joins values, the source holds several entries; their conditions need not be identical. Identical values can stand only once. Like-named read-outs stand apart in the source and are kept apart here.
# Key:
# [1] = test system: cyclin K–eGFP degradation reporter; experiment: Cyclin K reporter stability analysis (dual-color cyclin K–eGFP reporter); assay type: cell-based, human; details: for reporter assay signal (normalized): replicates
# How it was run: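 Readout was the eGFP-to-mCherry geometric-mean ratio by flow cytometry, normalized to three DMSO controls, after 5 h drug exposure. Cells used were HEK293T–Cas9 expressing the dual-colour cyclin K–eGFP degradation reporter.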
# CDK9–cyclin T = molecular target: T1, CDK9–cyclin T (Homo sapiens, UniProt P50750); experiment: Lanthascreen kinase binding assay, CDK9; details: for IC50: Supplementary Table 2, read-out: Lanthascreen IC50 [nM] CDK9; for Lanthascreen TR-FRET signal (raw ratio), sheet CDK9: third titration set (r25), duplicates
# T1 construct: purchased Thermo Fisher
# T1 sequence (P50750 whole entry): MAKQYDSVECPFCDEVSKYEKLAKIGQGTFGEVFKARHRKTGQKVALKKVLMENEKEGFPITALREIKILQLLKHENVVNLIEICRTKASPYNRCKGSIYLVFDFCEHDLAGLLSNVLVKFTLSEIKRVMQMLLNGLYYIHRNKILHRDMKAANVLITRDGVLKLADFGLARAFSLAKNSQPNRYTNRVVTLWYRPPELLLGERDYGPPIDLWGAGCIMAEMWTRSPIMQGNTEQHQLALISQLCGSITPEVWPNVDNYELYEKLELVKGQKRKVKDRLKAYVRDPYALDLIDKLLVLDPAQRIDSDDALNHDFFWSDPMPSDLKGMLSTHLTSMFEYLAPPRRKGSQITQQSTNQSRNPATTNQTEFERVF
# T1 sequence (O60563 whole entry partner): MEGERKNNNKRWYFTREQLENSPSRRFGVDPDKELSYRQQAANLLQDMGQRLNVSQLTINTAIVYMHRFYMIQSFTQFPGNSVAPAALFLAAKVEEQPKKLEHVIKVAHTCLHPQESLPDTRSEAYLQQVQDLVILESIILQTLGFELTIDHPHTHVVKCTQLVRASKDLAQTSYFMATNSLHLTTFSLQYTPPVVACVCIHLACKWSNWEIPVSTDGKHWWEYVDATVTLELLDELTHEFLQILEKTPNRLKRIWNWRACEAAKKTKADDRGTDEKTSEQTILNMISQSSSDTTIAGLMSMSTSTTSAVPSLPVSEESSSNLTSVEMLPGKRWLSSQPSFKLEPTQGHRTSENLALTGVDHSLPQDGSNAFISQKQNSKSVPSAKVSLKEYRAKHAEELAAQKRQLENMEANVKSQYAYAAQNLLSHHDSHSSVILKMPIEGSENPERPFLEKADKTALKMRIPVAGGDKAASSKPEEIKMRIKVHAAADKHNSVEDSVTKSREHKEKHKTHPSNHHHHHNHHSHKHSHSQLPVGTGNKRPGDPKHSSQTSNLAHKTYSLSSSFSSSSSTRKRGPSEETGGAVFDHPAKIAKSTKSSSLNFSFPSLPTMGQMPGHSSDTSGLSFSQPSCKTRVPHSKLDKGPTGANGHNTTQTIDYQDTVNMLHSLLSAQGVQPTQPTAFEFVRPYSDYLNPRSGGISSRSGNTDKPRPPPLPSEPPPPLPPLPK
# Protocol: (§1) Lanthascreen experiments were performed using commercially available reagents (Thermo Fisher) and according to the manufacturer’s instructions.
# cyclin K = experiment: Label-free quantitative mass spectrometry in MDA-MB-231 cells, cyclin K; assay type: cell-based, human; details: for CCNK peptide count (DMSO-normalised): normalised to DMSO = 1, replicate values
# Protocol: (§2) MDA-MB-231 cells were treated with DMSO or a cyclin K degrader compound at 1 µM for 5 h. Cells were collected by centrifugation and washed with phosphate-buffered saline before snap freezing in liquid nitrogen. Cells were lysed by addition of lysis buffer (8 M urea, 50 mM NaCl, 50 mM 4-(2-hydroxyethyl)-1-piperazineethanesulfonic acid (EPPS) pH 8.5, and protease and phosphatase inhibitors) and homogenization by bead beating (BioSpec) for three repeats of 30 s at 2,400 rpm. Bradford assay was used to determine the final protein concentration in the clarified cell lysate. Then 50 µg of protein for each sample was reduced, alkylated and precipitated using methanol/chloroform as previously described, and the resulting washed precipitated protein was allowed to air dry. Precipitated protein was resuspended in 4 M urea, 50 mM HEPES pH 7.4, followed by dilution to 1 M urea with the addition of 200 mM EPPS, pH 8. Proteins were first digested with LysC (1:50; enzyme:protein) for 12 h at room temperature. The LysC digestion was diluted to 0.5 M urea with 200 mM EPPS pH 8 followed by digestion with trypsin (1:50; enzyme:protein) for 6 h at 37 °C. Sample digests were acidified with formic acid to a pH of 2–3 before desalting using C18 solid phase extraction plates (SOLA, Thermo Fisher Scientific). Desalted peptides were dried in a vacuum-centrifuged and reconstituted in 0.1% formic acid for liquid chromatography–mass spectrometry analysis.
# (§3) Data were collected using a TimsTOF Pro2 (Bruker Daltonics) coupled to a nanoElute LC pump (Bruker Daltonics) via a CaptiveSpray nano-electrospray source. Peptides were separated on a reversed-phase C18 column (25 cm × 75 µm inner diameter, […], IonOpticks) containing an integrated captive spray emitter. Peptides were separated using a 50 min gradient of 2–30% buffer B (acetonitrile in 0.1% formic acid) with a flow rate of 250 nl min^−1 and column temperature maintained at 50 °C.
# (§4) Data-dependent acquisition (DDA) was performed in Parallel Accumulation-Serial Fragmentation (PASEF) mode to determine effective ion mobility windows for downstream diaPASEF data collection. The ddaPASEF parameters included: 100% duty cycle using accumulation and ramp times of 50 ms each, one Trapped Ion Mobility Spectrometry(TIMS)-MS scan and ten PASEF ramps per acquisition cycle. The TIMS-MS survey scan was acquired between 100 m/z and 1,700 m/z and 1/K0 of 0.7–1.3 V s cm^−2. Precursors with one to five charges were selected, and those that reached an intensity threshold of 20,000 arbitrary units were actively excluded for 0.4 min. The quadrupole isolation width was set to 2 m/z for m/z < 700 and 3 m/z for m/z > 800, with the m/z between 700 m/z and 800 m/z being interpolated linearly. […] To perform diaPASEF, the precursor distribution in the DDA m/z-ion mobility plane was used to design an acquisition scheme for data-independent acquisition (DIA) data collection that included two windows in each 50 ms diaPASEF scan. Data were acquired using 16 of these 25 Da precursor double window scans (creating 32 windows) that covered the diagonal scan line for doubly and triply charged precursors, with singly charged precursors able to be excluded by their position in the m/z-ion mobility plane. These precursor isolation windows were defined between 400 m/z and 1,200 m/z and 1/K0 of 0.7–1.3 V s cm^−2.
# (§5) DirectDIA mode includes first extracting the DIA data into a collection of MS2 spectra which are searched using Spectronaut’s Pulsar search engine. The search results are then used to generate a spectral library which is then employed for the targeted analysis of the DIA data. MS/MS spectra were searched against a Swissprot human database (January 2021). Database search criteria largely followed the default settings for directDIA including: tryptic with two missed cleavages, fixed carbomidomethylation of cysteine, and variable oxidation of methionine and acetylation of protein N-termini and precursor Q-value (FDR) cut-off of 0.01. […]
# CDK13 = molecular target: T2, CDK13 (Homo sapiens, UniProt Q14004+Q16531); experiment: Label-free quantitative mass spectrometry in MDA-MB-231 cells, CDK13; assay type: cell-based; details: for CDK13 peptide count: label-free quantitative MS, replicate values; for CDK13 peptide count (DMSO-normalised): normalised to DMSO = 1, replicate values
# T2 construct: endogenous in cells; host or cells: MDA-MB-231
# T2 sequence (Q14004 whole entry): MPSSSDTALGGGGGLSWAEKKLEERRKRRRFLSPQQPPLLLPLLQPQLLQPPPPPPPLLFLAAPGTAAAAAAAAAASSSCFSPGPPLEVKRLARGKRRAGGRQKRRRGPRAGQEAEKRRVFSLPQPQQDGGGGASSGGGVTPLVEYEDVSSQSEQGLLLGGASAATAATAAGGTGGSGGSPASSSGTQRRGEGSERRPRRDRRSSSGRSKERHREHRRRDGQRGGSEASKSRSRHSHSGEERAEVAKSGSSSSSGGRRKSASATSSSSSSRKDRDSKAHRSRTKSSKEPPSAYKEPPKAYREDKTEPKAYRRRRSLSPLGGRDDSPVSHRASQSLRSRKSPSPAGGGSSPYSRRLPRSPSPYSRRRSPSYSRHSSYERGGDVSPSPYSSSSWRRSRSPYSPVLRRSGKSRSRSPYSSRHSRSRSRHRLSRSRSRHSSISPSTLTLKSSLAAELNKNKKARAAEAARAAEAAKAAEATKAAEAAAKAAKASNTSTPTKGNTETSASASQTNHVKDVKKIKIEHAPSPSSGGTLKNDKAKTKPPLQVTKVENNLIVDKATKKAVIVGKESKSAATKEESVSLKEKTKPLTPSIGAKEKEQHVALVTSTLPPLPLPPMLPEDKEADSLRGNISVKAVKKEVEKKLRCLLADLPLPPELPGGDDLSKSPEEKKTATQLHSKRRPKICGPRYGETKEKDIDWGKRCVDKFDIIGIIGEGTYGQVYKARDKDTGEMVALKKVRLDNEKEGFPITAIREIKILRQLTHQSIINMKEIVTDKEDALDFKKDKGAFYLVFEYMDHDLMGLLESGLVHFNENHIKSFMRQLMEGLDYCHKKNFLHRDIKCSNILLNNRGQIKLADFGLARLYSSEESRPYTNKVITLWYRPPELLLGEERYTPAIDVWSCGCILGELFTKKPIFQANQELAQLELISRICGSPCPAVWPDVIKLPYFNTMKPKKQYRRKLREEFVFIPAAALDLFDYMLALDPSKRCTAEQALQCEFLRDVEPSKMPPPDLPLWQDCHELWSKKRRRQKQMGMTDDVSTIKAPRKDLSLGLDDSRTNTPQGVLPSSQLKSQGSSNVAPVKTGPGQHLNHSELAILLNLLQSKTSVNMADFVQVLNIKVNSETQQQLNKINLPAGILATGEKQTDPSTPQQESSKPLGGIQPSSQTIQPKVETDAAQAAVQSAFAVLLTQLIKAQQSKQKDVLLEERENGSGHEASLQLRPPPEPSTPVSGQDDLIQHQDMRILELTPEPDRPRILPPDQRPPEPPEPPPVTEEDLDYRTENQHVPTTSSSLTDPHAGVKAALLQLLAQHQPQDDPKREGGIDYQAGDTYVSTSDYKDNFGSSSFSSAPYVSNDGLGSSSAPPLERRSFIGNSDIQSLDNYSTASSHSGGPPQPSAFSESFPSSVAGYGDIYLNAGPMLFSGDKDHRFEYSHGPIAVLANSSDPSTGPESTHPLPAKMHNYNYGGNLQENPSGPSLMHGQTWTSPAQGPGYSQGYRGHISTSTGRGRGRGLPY
# T2 sequence (O75909 whole entry partner): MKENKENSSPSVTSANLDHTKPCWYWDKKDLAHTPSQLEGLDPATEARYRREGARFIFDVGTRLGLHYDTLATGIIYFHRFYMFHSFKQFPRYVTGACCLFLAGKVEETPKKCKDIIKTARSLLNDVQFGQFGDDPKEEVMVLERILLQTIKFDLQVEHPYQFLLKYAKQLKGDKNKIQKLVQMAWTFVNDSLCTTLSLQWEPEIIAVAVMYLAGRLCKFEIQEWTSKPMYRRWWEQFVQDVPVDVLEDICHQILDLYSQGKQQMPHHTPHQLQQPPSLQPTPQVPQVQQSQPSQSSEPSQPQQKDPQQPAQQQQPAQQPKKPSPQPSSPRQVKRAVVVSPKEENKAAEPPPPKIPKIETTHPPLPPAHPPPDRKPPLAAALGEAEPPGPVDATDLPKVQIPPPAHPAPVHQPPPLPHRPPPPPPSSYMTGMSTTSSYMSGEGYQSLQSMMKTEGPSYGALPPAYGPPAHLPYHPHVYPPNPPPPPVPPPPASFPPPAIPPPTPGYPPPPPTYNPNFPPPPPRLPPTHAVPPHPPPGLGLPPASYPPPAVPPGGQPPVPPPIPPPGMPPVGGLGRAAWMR
# T2 sequence (Q16531 2-1140 limits assumed): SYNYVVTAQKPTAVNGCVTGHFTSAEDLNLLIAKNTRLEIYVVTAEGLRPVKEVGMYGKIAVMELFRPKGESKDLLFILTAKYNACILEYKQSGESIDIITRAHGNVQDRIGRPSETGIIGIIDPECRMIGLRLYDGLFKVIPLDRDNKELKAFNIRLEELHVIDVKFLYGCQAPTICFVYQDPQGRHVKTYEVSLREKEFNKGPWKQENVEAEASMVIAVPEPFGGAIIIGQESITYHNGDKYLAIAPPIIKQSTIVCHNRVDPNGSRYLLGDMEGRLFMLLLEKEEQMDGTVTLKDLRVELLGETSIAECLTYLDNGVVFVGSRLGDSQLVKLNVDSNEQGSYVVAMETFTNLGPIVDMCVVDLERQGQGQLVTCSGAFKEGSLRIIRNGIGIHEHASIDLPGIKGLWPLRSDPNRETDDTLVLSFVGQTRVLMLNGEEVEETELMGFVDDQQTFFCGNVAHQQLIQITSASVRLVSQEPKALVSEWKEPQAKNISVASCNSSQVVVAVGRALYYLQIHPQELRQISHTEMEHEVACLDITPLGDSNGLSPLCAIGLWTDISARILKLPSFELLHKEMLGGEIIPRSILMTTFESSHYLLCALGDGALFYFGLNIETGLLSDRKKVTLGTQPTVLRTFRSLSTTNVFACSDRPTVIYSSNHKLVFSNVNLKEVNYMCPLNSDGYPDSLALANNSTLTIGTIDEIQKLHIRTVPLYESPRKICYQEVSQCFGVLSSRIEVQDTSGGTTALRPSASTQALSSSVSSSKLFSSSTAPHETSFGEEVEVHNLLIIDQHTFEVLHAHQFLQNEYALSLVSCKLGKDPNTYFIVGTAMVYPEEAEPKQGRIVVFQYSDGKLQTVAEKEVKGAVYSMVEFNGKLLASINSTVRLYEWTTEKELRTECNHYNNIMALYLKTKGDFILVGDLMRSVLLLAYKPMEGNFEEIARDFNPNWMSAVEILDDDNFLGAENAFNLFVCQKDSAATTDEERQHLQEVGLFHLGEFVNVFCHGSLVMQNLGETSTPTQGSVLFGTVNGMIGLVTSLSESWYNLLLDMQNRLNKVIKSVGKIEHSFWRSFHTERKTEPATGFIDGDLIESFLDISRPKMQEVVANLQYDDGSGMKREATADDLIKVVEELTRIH
# Protocol: as §2, §3, §4, §5
# CDK2–cyclin A = molecular target: T3, CDK2–cyclin A (Homo sapiens, UniProt P24941); experiment: Lanthascreen kinase binding assay, CDK2; details: for Lanthascreen signal, sheet CDK2: raw replicates, experiment r36-r46
# T3 construct: purchased Thermo Fisher
# Protocol: as §1
# [2] = source data sheet correlations, read-out: DC50
# [3] = individual replicates, sheet EDF7
# [4] = label-free quantitative MS, replicate values
smiles,measurement,setting,value
"CCC(CO)Nc1nc(NCc2ccc(-c3ccccn3)cc2)c2ncn(C(C)C)c2n1 (stereo not shown) [CR8, reference compound]",reporter assay signal (normalized),[1]; 2 nM,0.8972 and 0.9042
same,reporter assay signal (normalized),[1]; 3 nM,0.9215 and 0.8933
same,reporter assay signal (normalized),[1]; 4.5 nM,0.9042 and 0.8823
same,reporter assay signal (normalized),[1]; 7.68 nM,0.8744 and 0.8637
same,reporter assay signal (normalized),[1]; 22.8 nM,0.7879 and 0.7853
same,reporter assay signal (normalized),[1]; 34.2 nM,0.7383 and 0.7347
same,reporter assay signal (normalized),[1]; 51.3 nM,0.6912 and 0.706
same,reporter assay signal (normalized),[1]; 77 nM,0.6707 and 0.6773
same,reporter assay signal (normalized),[1]; 260 nM,0.5992 and 0.6647
same,reporter assay signal (normalized),[1]; 390 nM,0.6455 and 0.6368
same,reporter assay signal (normalized),[1]; 585 nM,0.6031 and 0.6411
same,reporter assay signal (normalized),[1]; 877 nM,0.5764 and 0.6073
same,reporter assay signal (normalized),[1]; 1970 nM,0.6031 and 0.6571
same,reporter assay signal (normalized),[1]; 2960 nM,0.6526 and 0.6453
same,reporter assay signal (normalized),[1]; 4440 nM,0.6125 and 0.6655
same,reporter assay signal (normalized),[1]; 6670 nM,0.6345 and 0.6267
same,reporter assay signal (normalized),[1]; 10000 nM,0.6031 and 0.6495
same,"cyclin K reporter degradation, result in words",[1]; HEK293T,potent degraders
same,DC50,"[1]; Supplementary Fig. 4, HEK293T cycKeGFP reporter, 5h, n=2, read-out: DC50 printed on reporter plot",15 nM
same,DC50,[1]; [2],24 nM
same,IC50,CDK9–cyclin T,44 nM
same,cyclin K abundance (label-free MS),cyclin K; [3],122.337 and 71.6906
same,cyclin K abundance (label-free MS),cyclin K; [4],122.337 and 71.6906
same,CCNK peptide count (DMSO-normalised),cyclin K,0.06684 and 0.03988
same,average CCNK peptide count,cyclin K; sheet EDF7,97.0136
same,CDK13 peptide count,CDK13,225.708 and 137.684
same,CDK13 peptide count (DMSO-normalised),CDK13,0.3358 and 0.2116
CC[C@H](CO)Nc1nc(NCc2nc3cc(Cl)c(Cl)cc3[nH]2)c2ncn(C(C)C)c2n1 [DS17],DC50,[1]; [2],12 nM
same,IC50,CDK9–cyclin T,3060 nM
same,"Lanthascreen TR-FRET signal (raw ratio), sheet CDK9",CDK9–cyclin T; compound 0.038147 nM,0.02187 and 0.01792
same,"Lanthascreen TR-FRET signal (raw ratio), sheet CDK9",CDK9–cyclin T; compound 0.152588 nM,0.02168 and 0.01994
same,"Lanthascreen TR-FRET signal (raw ratio), sheet CDK9",CDK9–cyclin T; compound 0.610352 nM,0.0196 and 0.01929
same,"Lanthascreen TR-FRET signal (raw ratio), sheet CDK9",CDK9–cyclin T; compound 9.76563 nM,0.02026 and 0.01917
same,"Lanthascreen TR-FRET signal (raw ratio), sheet CDK9",CDK9–cyclin T; compound 39.0625 nM,0.02086 and 0.01978
same,"Lanthascreen TR-FRET signal (raw ratio), sheet CDK9",CDK9–cyclin T; compound 156.25 nM,0.01948 and 0.0176
same,"Lanthascreen TR-FRET signal (raw ratio), sheet CDK9",CDK9–cyclin T; compound 625 nM,0.01695 and 0.01459
same,"Lanthascreen TR-FRET signal (raw ratio), sheet CDK9",CDK9–cyclin T; compound 2500 nM,0.01153 and 0.01174
same,"Lanthascreen TR-FRET signal (raw ratio), sheet CDK9",CDK9–cyclin T; compound 10000 nM,0.006855 and 0.006128
same,"Lanthascreen signal, sheet CDK2",CDK2–cyclin A; Compound 0.038147 nM,0.01335 and 0.01346
same,"Lanthascreen signal, sheet CDK2",CDK2–cyclin A; Compound 0.152588 nM,0.01372 and 0.01373
same,"Lanthascreen signal, sheet CDK2",CDK2–cyclin A; Compound 0.610352 nM,0.01335 and 0.01333
same,"Lanthascreen signal, sheet CDK2",CDK2–cyclin A; Compound 9.76563 nM,0.01387 and 0.01379
same,"Lanthascreen signal, sheet CDK2",CDK2–cyclin A; Compound 39.0625 nM,0.01306 and 0.01354
same,"Lanthascreen signal, sheet CDK2",CDK2–cyclin A; Compound 156.25 nM,0.01303 and 0.01259
same,"Lanthascreen signal, sheet CDK2",CDK2–cyclin A; Compound 625 nM,0.01178 and 0.01167
same,"Lanthascreen signal, sheet CDK2",CDK2–cyclin A; Compound 2500 nM,0.01002 and 0.01073
same,"Lanthascreen signal, sheet CDK2",CDK2–cyclin A; Compound 10000 nM,0.0065 and 0.006945
same,IC50,"CDK2–cyclin A; Supplementary Table 2, read-out: Lanthascreen IC50 [nM] CDK2",10300 nM
same,"cyclin K depletion, result in words","cyclin K; MDA-MB-231 cells, 1 µM, 5 h",more effective at depleting cyclin K than CR8
same,cyclin K abundance (label-free MS),cyclin K; [3],47.1483 and 71.6427
same,cyclin K abundance (label-free MS),cyclin K; [4],47.1483 and 71.6427
same,CCNK peptide count (DMSO-normalised),cyclin K,0.02576 and 0.03985
same,average CCNK peptide count,cyclin K; sheet EDF7,59.3955
same,CDK13 peptide count,CDK13,156.014 and 130.628
same,CDK13 peptide count (DMSO-normalised),CDK13,0.2321 and 0.2007
